In PMC6601062, “Identification of duck liver-expressed antimicrobial peptide 2 and characterization of its bactericidal activity” (Asian-Australasian Journal of Animal Sciences, 2018):
Bridge positions count the residues as written; N and C are the ends. Peptide text beside a SMILES is read from it.

Assays:
[1] = test system: S. aureus; test: Fluorescence microscopic analysis, LIVE/DEAD BacLight staining; assay type: cell-based, Staphylococcus aureus; settings: 200 μg/mL peptide, 3 h at 37°C, SYTO9 / propidium iodide
Experimental: (§1) E. coli, S. aureus, and L. monocytogenes (5.0×10^5 CFU/mL) in PBS were incubated with a 200 μg/mL (final concentration) of the disulfide-LEAP-2 peptide for 3 h at 37°C. After incubation, the cells were washed with PBS and stained with LIVE/DEAD BacLight Bacterial Viability Kits (Invitrogen, USA) according to the manufacturer’s instructions. In brief, the bacteria were incubated for 15 min with SYTO9 green fluorescent […] and with propidium iodide in a dark room. The cells were then mounted onto glass slides and examined using EVOS FLoid Cell Imaging Station (Invitrogen, USA).

[2] = test system: L. monocytogenes; test: as above; assay type: cell-based, Listeria monocytogenes; settings: 200 μg/mL peptide, 3 h at 37°C, SYTO9 / propidium iodide
Experimental: as §1

[3] = test system: E. coli; test: as above; assay type: cell-based, Escherichia coli; settings: 200 μg/mL peptide, 3 h at 37°C, SYTO9 / propidium iodide
Experimental: as §1

[4] = test system: E. coli ATCC 43888; test: Antimicrobial activity assay (colony counting); assay type: cell-based, Escherichia coli; settings: 50 μg/mL peptide, 3 h at 37°C, PBS pH 7.4, colony counting
Experimental: (§2) The bacterial species used in this experiment included two gram-positive bacteria strains, Listeria monocytogenes (L. monocytogenes) ATCC 19115 and Staphylococcus aureus (S. aureus) ATCC 27664, and four gram-negative bacteria strains, E. coli ATCC 43888, Salmonella enterica serovar Enteritidis YHS 383, Salmonella enterica serovar Choleraesuis YHS 386, and Salmonella enterica serovar Typhimurium ATCC 43174.
Bacteria were cultured overnight at 37°C in LB broth for E. coli, and in tryptic soy broth for the other bacteria, and suspended to 5.0×10^5 colony-forming units (CFU)/mL in PBS (pH 7.4). To measure antimicrobial activity, 25 μL of bacteria were added into 96-well microtiter plates and diluted duck LEAP-2 peptides were dispensed to final concentrations of 50, 100, 150, and 200 μg/mL. After 3 h of incubation at 37°C, surviving bacteria were counted using a standard colony counting assay according to the following formula: cell survival % = (treatment CFU/negative control CFU)×100. To determine the killing kinetics, L. monocytogenes and S. aureus were cultured overnight in tryptic soy broth and suspended to 5.0×10^5 CFU/mL in PBS (pH 7.4). Bacteria were added into 96-well microtiter plates with a final peptide concentration of 200 μg/mL. […] Surviving bacteria were counted using a standard colony counting assay.

[5] = test system: Salmonella enterica serovar Typhimurium ATCC 43174; test: Antimicrobial activity assay (colony counting); assay type: cell-based; settings: 200 μg/mL peptide, 3 h at 37°C, PBS pH 7.4, colony counting
Experimental: as §2
(§3) Bacteria were cultured overnight at 37°C in LB broth for E. coli, and in tryptic soy broth for the other bacteria, and suspended to 5.0×10^5 colony-forming units (CFU)/mL in PBS (pH 7.4). To measure antimicrobial activity, 25 μL of bacteria were added into 96-well microtiter plates and diluted duck LEAP-2 peptides were dispensed to final concentrations of 50, 100, 150, and 200 μg/mL. After 3 h of incubation at 37°C, surviving bacteria were counted using a standard colony counting assay according to the following formula: cell survival % = (treatment CFU/negative control CFU)×100. To determine the killing kinetics, L. monocytogenes and S. aureus were cultured overnight in tryptic soy broth and suspended to 5.0×10^5 CFU/mL in PBS (pH 7.4). Bacteria were added into 96-well microtiter plates with a final peptide concentration of 200 μg/mL. The bacteria and peptide mixture was incubated for 0, 30, 60, 90, and 180 min at 37°C. Surviving bacteria were counted using a standard colony counting assay.

[6] = test system: Staphylococcus aureus (S. aureus) ATCC 27664; test: Antimicrobial activity assay (colony counting); assay type: cell-based; settings: 50 μg/mL peptide, 3 h at 37°C, 5.0×10^5 CFU/mL in PBS pH 7.4, colony counting
Experimental: as §2, §3

[7] = test system: Listeria monocytogenes (L. monocytogenes) ATCC 19115; test: Antimicrobial activity assay (colony counting); assay type: cell-based; settings: 50 μg/mL peptide, 3 h at 37°C, 5.0×10^5 CFU/mL in PBS pH 7.4, colony counting
Experimental: as §2, §3

[8] = test system: Staphylococcus aureus; test: Killing kinetics (colony counting); assay type: cell-based; settings: 200 μg/mL peptide, 37°C, PBS pH 7.4; sampled at 0, 30, 60, 90, 180 min
Experimental: as §3

[9] = test system: Listeria monocytogenes ATCC 19115; test: Killing kinetics (colony counting); assay type: cell-based; settings: 200 μg/mL peptide, 37°C, PBS pH 7.4; sampled at 0, 30, 60, 90, 180 min
Experimental: as §3

[10] = test system: Salmonella enterica serovar Enteritidis YHS 383; test: Antimicrobial activity assay (colony counting); assay type: cell-based; settings: 3 h at 37°C, PBS pH 7.4, colony counting; concentration not given
Experimental: as §2, §3

SMILES | live/dead staining of S. aureus (red fluorescence = dead) [1] | live/dead staining of L. monocytogenes (red fluorescence = dead) [2] | live/dead staining of E. coli (red fluorescence = dead) [3] | E. coli killed [4] | killing effect / inhibition of cell proliferation, S. Typhimurium [5] | killing of S. aureus [6] | killing of L. monocytogenes [7] | killing of S. aureus over time [8] | time in which all L. monocytogenes were killed [9] | S. Enteritidis inhibited [10]
CC[C@H](C)[C@@H]1NC(=O)[C@@H]2CSSC[C@@H](C(=O)N[C@@H](Cc3ccccc3)C(=O)N[C@@H](CC(C)C)C(=O)N[C@@H](CCCNC(=N)N)C(=O)N[C@@H](CO)C(=O)N[C@@H](C)C(=O)N[C@@H](CO)C(=O)N[C@@H](CCC(=O)O)C(=O)O)NC(=O)[C@H](CCCNC(=N)N)NC(=O)[C@H](CC(N)=O)NC(=O)[C@H](CCCCN)NC(=O)[C@H](CCCNC(=N)N)NC(=O)[C@H](CSSC[C@H](NC(=O)[C@H](CO)NC(=O)[C@H](C)NC(=O)CNC(=O)[C@@H](NC(=O)[C@@H]3CCCN3C(=O)[C@H](CCCNC(=N)N)NC(=O)[C@H](CC(C)C)NC(=O)[C@H](CO)NC(=O)[C@@H](NC(=O)CNC(=O)[C@H](CCCNC(=N)N)NC(=O)[C@H](Cc3c[nH]c4ccccc34)NC(=O)[C@H](Cc3ccccc3)NC(=O)[C@@H]3CCCN3C(=O)[C@@H](NC(=O)[C@@H](N)CCSC)[C@@H](C)O)C(C)C)[C@@H](C)CC)C(=O)N[C@@H](CCCNC(=N)N)C(=O)N[C@@H](CC(=O)O)C(=O)N[C@@H](CC(N)=O)C(=O)N[C@@H](CO)C(=O)N[C@@H](CCC(=O)O)C(=O)N2)NC(=O)[C@H](CC(C)C)NC(=O)[C@H](CCSC)NC(=O)[C@H]([C@@H](C)O)NC1=O [disulfide LEAP-2] (H-MTPFWRGVSLRPIGASCRDNSECITMLCRKNRCFLRSASE-OH; disulfide 17-28, 23-33; N-terminus and C-terminus assumed) | most of the cells were dead | most of the cells were dead | most of the cells were dead | more than 90% | 90% | killed most | killed most | killed S. aureus gradually over time | ≤ 30 min | 
CC[C@H](C)[C@H](NC(=O)[C@H](CS)NC(=O)[C@H](CCC(=O)O)NC(=O)[C@H](CO)NC(=O)[C@H](CC(N)=O)NC(=O)[C@H](CC(=O)O)NC(=O)[C@H](CCCNC(=N)N)NC(=O)[C@H](CS)NC(=O)[C@H](CO)NC(=O)[C@H](C)NC(=O)CNC(=O)[C@@H](NC(=O)[C@@H]1CCCN1C(=O)[C@H](CCCNC(=N)N)NC(=O)[C@H](CC(C)C)NC(=O)[C@H](CO)NC(=O)[C@@H](NC(=O)CNC(=O)[C@H](CCCNC(=N)N)NC(=O)[C@H](Cc1c[nH]c2ccccc12)NC(=O)[C@H](Cc1ccccc1)NC(=O)[C@@H]1CCCN1C(=O)[C@@H](NC(=O)[C@@H](N)CCSC)[C@@H](C)O)C(C)C)[C@@H](C)CC)C(=O)N[C@H](C(=O)N[C@@H](CCSC)C(=O)N[C@@H](CC(C)C)C(=O)N[C@@H](CS)C(=O)N[C@@H](CCCNC(=N)N)C(=O)N[C@@H](CCCCN)C(=O)N[C@@H](CC(N)=O)C(=O)N[C@@H](CCCNC(=N)N)C(=O)N[C@@H](CS)C(=O)N[C@@H](Cc1ccccc1)C(=O)N[C@@H](CC(C)C)C(=O)N[C@@H](CCCNC(=N)N)C(=O)N[C@@H](CO)C(=O)N[C@@H](C)C(=O)N[C@@H](CO)C(=O)N[C@@H](CCC(=O)O)C(=O)O)[C@@H](C)O [linear LEAP-2] (H-MTPFWRGVSLRPIGASCRDNSECITMLCRKNRCFLRSASE-OH; N-terminus and C-terminus assumed) |  |  |  |  |  |  |  | killed S. aureus gradually over time | ≤ 30 min | not inhibited
